Test results: patent US20080038809A1, “ISOLATED LECTIN POLYPEPTIDES CONSISTING OF TRUNCATED […] UDP-GalNAc:POLYPEPTIDE N- ACETYLGALACTOSAMINYLTRANSFERASES” (GLYCOZYM APS, priority 2002, published 2008)
Entries after “also recorded” stand apart in the source; their conditions may differ.

What was measured:
[1] = test system: MUC1 expression in CHO1d1D/MUC1F-clone2 cells; assay: MUC1 expression in cell lysates by immunoprecipitation, SDS-PAGE and western blot; type: cell-based, Chinese hamster (CHO 1d1D cells); human MUC1; conditions: 2 mM; for MUC1 expression: cells in GalNAc or Gal and GalNAc; for SDS-PAGE migration of MUC1 (O-glycan extension): cells in Gal and GalNAc
Description: FIG. 12 is an SDS-PAGE Western analysis of GalNAcα-benzyl inhibition of MUC1 expression in CHO 1d1D cells stably transfected with a full coding MUC1 construct. […] Cells were further treated with 2 mM GalNAcα-benzyl (lanes 1, 4, 7, 10), 2 mM GlcNAcα-benzyl (lanes 2, 5, 8, 11) or no inhibitor (lanes 3, 6, 9, 12). Cells were washed and lysed at 24 or 48 hours and the lysates subjected to immunoprecipitation with monoclonal antibody HMFG2, which broadly recognize MUC1 glycoforms. Immunoprecipitates were analysed by SDS-PAGE and western blot using HMFG2 antibody to detect MUC1 expression. Lane M indicates molecular markers with assigned mw. Lane C includes a control MUC1 180-mer tandem repeat peptide which has been GalNAc-glycosylated with 3 moles GalNAc per repeat using GalNAc-T2. The sharp bands migrating at 100-200 kd are immunoglobulins indicated by IgG.
FIG. 13 is a SDS-PAGE Western analysis resulting from the same experiment as in FIG. 12, but using a novel monoclonal antibody, 5E5, to visualize MUC1 expression. […] Cells were further treated with 2 mM GalNAcα-benzyl (lanes 1, 4), 2 mM GlcNAcα-benzyl (lanes 2, 5) or no inhibitor (lanes 3, 6). Cells were washed and lysed at 48 hours and the lysates subjected to immunoprecipitation with monoclonal antibody HMFG2, which broadly recognize MUC1 glycoforms. Immunoprecipitates were analysed by SDS-PAGE and western blot using 5E5 antibody, which selectively recognize GalNAc-glycosylated MUC1 expression and show no reactivity with unglycosylated MUC1 peptides. Lanes M and C as described in legend to FIG. 12.
Cells were further treated with 2 mM GalNAcα-benzyl (lanes 1, 4, 7, 10), 2 mM GalNAcβ-benzyl (lanes 2, 5, 8, 11) or 2 mM GlcNAcα-benzyl (lanes 3, 6, 9, 12). Cells were washed and lysed at 36 hours and the lysates subjected to immunoprecipitation with monoclonal antibodies HMFG2 (lanes 1-6) or 5E5 (lanes 7-12). Immunoprecipitates were analysed by SDS-PAGE and western blot using HMFG2 antibody. Lanes M and C as described in legend to FIG. 7.
FIG. 15 is an SDS-PAGE Western analysis resulting from the same experiment as FIG. 14, except that expression is visualized by the monoclonal antibody 5E5. […] Cells were further treated with 2 mM GalNAcα-benzyl (lanes 1, 4, 7, 10), 2 mM GalNAcβ-benzyl (lanes 2, 5, 8, 11) or 2 mM GlcNAcα-benzyl (lanes 3, 6, 9, 12). Cells were washed and lysed at 36 hours and the lysates subjected to immunoprecipitation with monoclonal antibodies HMFG2 (lanes 1-6) or 5E5 (lanes 7-12). Immunoprecipitates were analysed by SDS-PAGE and western blot using 5E5 antibody. Lanes M and C as described in legend to FIG. 12.
We therefore investigated the effect of treatment with GalNAcα-benzyl of CHO1d1D/MUC1F-clone2 cells grown in the presence of GalNAc. CHO1d1D/MUC1F-clone2 cells were seeded in 6 well plates at a density of 0.2×10^6 per well and were grown for 6 hours in Hams F12 medium with serum until approximately 30% subconfluent. […] After 18 hours, the medium was replaced with fresh Optimem containing the sugars and benzyl derivatives as above and grown for 12-48 hours. Initially we analyzed surface expression of MUC1 by immunocytology. Cells were washed once in PBS-CMF (phosphate buffered saline Calcium and Magnesium free) after carefully removing the medium from the wells and subsequently fixed in 2 ml 3% paraformaldehyde at 25° C. for 20 min followed by three washes with PBS-CMF 3 times. Free aldehyde groups were quenched by incubating in 2 mL 50 mM Ammonium Chloride in PBS-CMF for 10 min, followed by three washes with PBS-CMF and three washes with 5 min incubations each with PBS-CMF containing 0.2% Fish Skin Gelatin (Sigma). Immunostaining of cells was performed by incubation with monoclonal antibodies for 40 min at 25° C., followed by three washes with PBS-CMF and three washes of 5 min each with PBS-CMF containing 0.2% Fish Skin Gelatin. […]

[2] = test system: MUC5AC secretion, HT29MTX cells; assay: MUC5AC secretion from HT29MTX cells by SDS-PAGE Western blotting of media; type: cell-based, human; conditions: 5 mM, 14 days, LUM5-1 antibody
Description: FIG. 17 illustrates SDS-PAGE Western analysis of MUC5AC secretion from HT29MTX cells using polyclonal anti-MUC5AC antibody LUM5-1. In order to evaluate GalNAcβ-benzyl as an inhibitor of mucin glycosylation and secretion we used the HT-29 metotrexate (MTX) cultured colon carcinoma cells of mucin secreting phenotype. HT-29 MTX cells have a goblet cell like phenotype with constitutive production of MUC5AC. Cells were continuously grown up to 21 days in the presence of 5 mM GalNAcα-benzyl, 5 mM GalNAcβ-benzyl, 5 mM GlcNAcα-benzyl and without inhibitor. […] In striking contrast, MUC5AC was not detected in the media from cells treated with GalNAcα-benzyl (Lane 3) or GalNAcβ-benzyl (Lane 4). Results shown are from media collected at 14 days.
In order to evaluate GalNAcβ-benzyl as an inhibitor of mucin glycosylation and secretion we used the cultured colon carcinoma cells of mucin secreting phenotypes: HT-29 metotrexate (MTX) cells selected from the HT-29 cell line by culture in the presence of MTX (kind gift from G. Huet, France). The HT-29 MTX cells were selected to yield a goblet cell like phenotype with constitutive production of MUC5AC. In order to ensure proper goblet cell differentiation the HT29MTX cell line were continuously grown up to 21 days in the presence of 5 mM GalNAcα-benzyl, 5 mM GalNAcβ-benzyl, 5 mM GlcNAcα-benzyl and without inhibitor using culture conditions as described in Hennebicq-Reig et al. (Permanent exposure of mucin-secreting HT-29 cells to benzyl-N-acetyl-alpha-D-galactosaminide induces abnormal O-glycosylation of mucins and inhibits constitutive and stimulated MUC5AC secretion. Biochem J. 1998; 334:283-95). […] Furthermore the viscosity of the media from cells with and without inhibitor was evaluated using viscosity micro-measurement.

[3] = 36 hours, 5E5 blot, cells grown in GalNAc

SMILES	reduction in MUC1 expression [1, 3]	MUC1 expression ([1]; 48 hours, 5E5 blot)	MUC1 expression ([1]; 48 hours, HMFG2 blot)	SDS-PAGE migration of MUC1 (O-glycan extension) ([1]; 48 hours)	MUC5AC in media [2]	reduction in MUC1 expression ([1]; 36 hours, HMFG2 blot)	SDS-PAGE migration of MUC1 (O-glycan extension) ([1]; 36 hours)
CC(=O)N[C@H]1[C@@H](OCc2ccccc2)O[C@H](CO)[C@H](O)[C@@H]1O [GalNAcα-benzyl, benzyl-N-acetyl-alpha-D-galactosaminide]	strong inhibition of MUC1 expression	significant reduction in MUC1 expression	significant reduction in MUC1 expression	marked shift in migration to lower molecular weight migrating species	diminished secretion of MUC5AC	–	–
CC(=O)N[C@H]1[C@H](OCc2ccccc2)O[C@H](CO)[C@H](O)[C@@H]1O [GalNAcβ-benzyl]	strong inhibition of MUC1 expression; also recorded: same or better reduction in MUC1 expression as treatment with GalNAcα-benzyl	–	–	–	diminished secretion of MUC5AC	same or better reduction in MUC1 expression as treatment with GalNAcα-benzyl	no change in the migration of MUC1
CC(=O)N[C@H]1[C@@H](OCc2ccccc2)O[C@H](CO)[C@@H](O)[C@@H]1O [GlcNAcα-benzyl]	–	–	no effect on MUC1 expression and O-glycosylation compared to untreated cells	–	detected MUC5AC in media	–	–
